Here are results for two compounds from patent publication US8084016B2, “Measurement of biosynthesis and breakdown rates of biological molecules that are inaccessible or not easily accessible to direct sampling, non-invasively, by label incorporation into metabolic derivatives and catabolitic products” (The Regents of the University of California, priority 2002, dated 2011).

Series [1] is described as follows: Toxicity observation during maintained body water enrichment with ^2H2O. It counts as in vivo. To be noted: levels maintained for weeks or months; >100 human subjects; rapid changes in body water enrichment prevented. The text has this: Relatively high body water enrichments of ^2H2O (e.g., 1-10% of the total body water is labeled) may be achieved using the techniques of the invention. This water enrichment is relatively constant and stable as these levels are maintained for weeks or months in humans and in experimental animals without any evidence of toxicity (FIGS. 3-5). This finding in a large number of human subjects (>100 people) is contrary to previous concerns about vestibular toxicities at high doses of ^2H2O. Applicants have discovered that as long as rapid changes in body water enrichment are prevented (e.g., by initial administration in small, divided doses), high body water enrichments of ^2H2O can be maintained with no toxicities. For example, the low expense of commercially available ^2H2O allows long-term maintenance of enrichments in the 1-5% range at relatively low expense (e.g., calculations reveal a lower cost for 2 months labeling at 2% ^2H2O enrichment, and thus 7-8% enrichment in the alanine precursor pool (FIGS. 6A-B), than for 12 hours labeling of ^2H-leucine at 10% free leucine enrichment, and thus 7-8% enrichment in leucine precursor pool for that period).

Series [2] in a line: Body water ^2H2O enrichment during oral ^2H2O intake. The class given is in vivo, human.
Another series deals with muscle myosin. The series can be described thus: Incorporation of ^2H from ^2H2O into urinary 3-methyl-histidine (muscle myosin biosynthesis). The class given is in vivo. To be noted: human subjects, intake of ^2H2O for 4-8 weeks. The text has this: An individual undergoing a physical training program or medical therapeutic regimen intended to increase muscle mass by increasing muscle myosin biosynthesis (e.g., an athlete; an elderly person receiving physical therapy after a stroke; a patient with cachexia related to cancer or AIDS who is receiving nutritional or anabolic agent therapy) is given a labeled precursor that is incorporated into the body's proteins during biosynthesis. […] […] […] Total urinary amino acids are isolated with an SPE column. The amino acids are derivatized for gas chromatographic/mass spectrometric analysis. […] The derivatized amino acids are injected into a gas chromatograph/mass spectrometer (e.g., HP 5973 instrument), using, e.g., a DB-225 column. The mass spectrum of the 3-methyl histidine peak is collected while monitoring mass isotopomers at m/z 267 and 268 (parent and M+1 ions, respectively). Relative abundances of the above mass isotopomers are quantified in samples and compared to unlabeled standards ([…] 267+268]=0.1200 in samples and 0.0960 in standards). The proportion of labeled:unlabeled molecules present in the sample is calculated for 3-methylhistidine using MIDA.

In the case of `[2H]O[2H]` [^2H2O], the “toxicity at high body water enrichments of ^2H2O” value in series [1] is given as “no toxicities”. Moreover, in series [2] (human subjects drank 50-100 ml ^2H2O daily for 10-12 weeks (FIG. 4)), the “stability of ^2H2O enrichment in body water (precursor pool)” value was “stable over a period of weeks”. For the same compound, in series [2] (human subjects, intake of ^2H2O for 4-8 weeks), the “^2H2O (%): body water enrichment” value is listed as 1.8%.
As for `Cn1cncc1C[C@H](N)C(=O)O` [3-methyl-histidine], in the series with muscle myosin, the “k: replacement rate constant of 3-methyl-histidine” value stood at 0.037 day⁻¹.
